The values below come from patent US4246282A, “ω-Dialkylalkanoic acid derivatives used to induce antianoxic activity” (Labaz, priority 1979, dated 1981).

Data set [1] in a line: β-Mercaptopropionic acid seizure (protection against the tonic seizure). The format is in vivo, mice. The note with it: Mus musculus, 0.25 h. The procedure:
β-Mercaptopropionic acid is an inhibitor of glutamate decarboxylase (G.A.D.), an enzyme which catalyses the transformation of glutamate into γ-aminobutyric acid (GABA). As a consequent of this, a decrease in the GABA lever occurs together with generalized tonico-clonic seizures 3 to 4 minutes after administration.
In the present test, β-mercaptopropionic acid was administered intraperitoneally to batches of 10 male mice, at a dose of 70 mg/kg, 30 minutes after oral administration of a dose of the compound to be studied. The percentage of animals protected against the tonic seizure was registered 15 minutes after administration of the β-mercaptopropionicacid.

Data set [2] is described as follows: Pentylenetetrazol seizure. The format is in vivo, mice. The note with it: Mus musculus, 0.25 h.
A short description of data set [3]: rota rod test (neurotoxicity, coordination of movements on a turning rod). For orientation: The rotarod test checks motor coordination on a turning rod.
Protocol: This test enables the animal's ability to coordinate its movements on a turning rod to be evaluated. […] (a) 15 min. after administration of 500 mg/kg by oral route:
A short description of data set [4]: Anoxia in confined space (period of survival). The format is in vivo, mice. The procedure: Batches of 15 male mice were treated with a dose of a compound to be studied. After that, each animal was placed in a hermetically sealed box of 200 cm^3. The animal was considered to be dead when it had stopped breathing.
The increase in the period of survival was then noted in % in comparison with the controls. […]

Where [5] appears, read: 15 min. after administration of 500 mg/kg by oral route.
Where [6] appears, read: 30 min. after administration of 500 mg/kg by oral route.
Where [7] appears, read: 15 min. after administration of 100 mg/kg by intraperitoneal route.
Where [8] appears, read: 30 min. after administration of 100 mg/kg by intraperitoneal route.

Molecules are shown by their SMILES.

With `CCCC(CCC)CC(=O)[O-].[Na+]`, the figures for the ED50 in data set [1] (po) and in data set [2] (po) were 168 mg/kg and 95 mg/kg, respectively. The “% of failures” value in data set [3] (setting [5]) and in data set [3] (setting [6]) was 30% each time.
As to `CCCC(CCC)CC(N)=O` [3-n-propyl-hexanamide, 3-n-Propyl-hexanamide], the entries for the “% of failures” value in data set [3] (setting [5]) and in data set [3] (setting [6]) were 30% and 10%, respectively.
Turning to `CCCC(CCC)CCC(N)=O` [4-n-propyl-heptanamide, 4-n-Propyl-heptanamide], the “% of failures” value in data set [3] (setting [7]) came to 0%.
As for `CCCC(CCC)CCCC(N)=O` [5-n-propyl-octanamide, 5-n-Propyl-octanamide], the results for the “% of failures” value in data set [3] (setting [5]) and in data set [3] (setting [8]) were 0% and 50%, respectively.
Consider `CCCC(CCC)CCC(=O)O` [ONa, n = 1], for which the “% of failures” value in data set [3] (setting [7]) is 30%.
Turning to `CCCC(CCC)CCCC(=O)O` [ONa, n = 2], the ED50 in data set [1] (male mice, oral, 30 min before β-mercaptopropionic acid 70 mg/kg i.p., registered 15 minutes after, read-out: ED50) was 273 mg/kg. The “% of failures” value is on record as 20% in data set [3] (setting [5]) and 100% in data set [3] (setting [8]).
For `CCCC(CCC)C(N)=O` [di-n-propylacetamide], the ED50 in data set [2] (mice, oral route, registered 15 minutes after pentylenetetrazol, read-out: ED50) was 46 mg/kg. The “increase in survival time” value in data set [4] (50 mg/kg intraperitoneal) turned out to be 12%. In addition, the “% of failures” value in data set [3] (15 minutes after administration of 170 mg/kg by oral route) came out at 50%.
Take `CCCC(CCC)C(=O)[O-].[Na+]` [sodium di-n-propylacetate]: the ED50 in data set [1] (po, an other comparative test, read-out: ED50) turned out to be 175 mg/kg. In addition, in data set [4] (200 mg/kg intraperitoneal), the “increase in survival time” value amounted to 32%.

Usually ED50 stands for the dose that gives a 50% effect, or the effect in half of the subjects.
